According to publication PMC6273932, “Xanthium strumarium as an Inhibitor of α-Glucosidase, Protein Tyrosine Phosphatase 1β, Protein Glycation and ABTS^+ for Diabetic and Its Complication” (Molecules, 2016):
Converted amounts (≈) assume the structure as drawn. One block for each compound: values may come before it.

Legend:
[1] = test system: α-glucosidase from Saccharomyces sp.; assay: α-glucosidase inhibitory activity assay (pNPG substrate, absorbance 405 nm); type: biochemical
Description: ^1H- and ^13C-NMR spectra and correlation NMR spectra such as COSY, HMBC, HMQC, and DEPT were obtained from a Bruker Avance DPX 400 (or 600) spectrometer (Berlin, Germany). These were obtained at operating frequencies of 400 MHz (^1H) and 100 (or 150) MHz (^13C) with CD3OD, (CD3)2SO, (CD3)2CO, or D2O and TMS was used as an internal standard; chemical shifts were reported in δ values. The α-glucosidase from Saccharomyces sp. (SSG) was purchased from Wako Pure Chemical Industries Ltd (Tokyo, Japan). […] All other chemicals and reagents used were of analytical grade.
The α-glucosidase inhibitory activity of the extracts and fractions was determined using a modified procedure reported method with a slight modification. The α-glucosidase activity was measured using the substrate p-nitrophenyl-α-D-glucopyranoside (pNPG), which is hydrolyzed by α-glucosidase to release the product p-nitrophenol, a colorant that can be monitored at 405 nm. The initial concentration of the enzyme solution was 0.62 unit/mL in 0.1 M phosphate buffer (pH 6.9) and the initial concentration of the substrate solution was 2 mM in the same phosphate buffer. The enzyme solution was mixed with water and the samples or controls in a clear 96-well microplate (flat bottom) and the reaction was initiated by addition of the substrate to the solution. The plates were incubated at 37 °C for 5 min and the reaction was terminated by the addition of 0.1 M Na2CO3. […] Background absorbance was determined using a non-enzyme control microplate containing the buffer and was subtracted from the absorbance of the samples and controls.

[2] = molecular target: T1, protein tyrosine phosphatase 1β (PTP1β) (Homo sapiens, UniProt P18031); assay: PTP1β inhibitory activity assay (colorimetric kit, IR5 phosphopeptide substrate); type: biochemical; conditions: for inhibition at 10 µg/mL: 10 μg/mL; for inhibition at 10 µg/mL / IC50: - is no activity; for IC50: isolated compounds
T1 sequence (P18031 1-322 limits assumed): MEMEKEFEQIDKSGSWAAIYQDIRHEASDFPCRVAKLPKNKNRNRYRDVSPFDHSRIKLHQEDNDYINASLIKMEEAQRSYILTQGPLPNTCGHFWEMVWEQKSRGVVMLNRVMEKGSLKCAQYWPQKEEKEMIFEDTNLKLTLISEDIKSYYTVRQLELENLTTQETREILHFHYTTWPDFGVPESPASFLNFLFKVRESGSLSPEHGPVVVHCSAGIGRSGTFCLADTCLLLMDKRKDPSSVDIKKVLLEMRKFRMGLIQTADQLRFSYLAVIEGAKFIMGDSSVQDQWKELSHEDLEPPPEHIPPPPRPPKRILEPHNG
Description: PTP1β tyrosine phosphatase drug discovery kit is a colorimetric, non-radioactive assay designed to measure the phosphatase activity of purified PTP1β. […] Following incubation at 37 °C for 30 min, the reaction was terminated with the BIOMOL RED^TM reagent. The amount of […] produced was estimated by measuring the absorbance at 620 nm. The non-enzymatic hydrolysis of the IR5 substrate was corrected by measuring the increase in absorbance at 620 nm obtained in the absence of PTP1β enzyme.

[3] = test system: advanced glycation end products (AGEs); assay: AGEs inhibitory activity, bovine serum albumin-methylglyoxal assay (fluorescence); type: biochemical; conditions: for IC50 AGEs: - is no activity
Description: The modified procedure of Lee et al. was followed. Bovine serum albumin (10 mg/mL) was incubated with 5 mM methylglyoxal in sodium phosphate buffer (100 mM; pH 7.4). […] All of the reagents and samples were […] by filtration through 0.2 μm membrane filters and the mixture was incubated at 37 °C for 7 days. The fluorescence intensity was measured at an excitation wavelength of 330 nm and an emission wavelength of 410 nm with a LS50B fluorescence spectrometer Perkin-Elmer Ltd., (Buckinghamshire, FLS, UK). Aminoguanidine was also tested as a known inhibitor.

[4] = ABTS^+ radical scavenging activity assay
Description: The method described by Li et al. was used with slight modifications. ABTS^+ diammonium salt (2 mM) and potassium persulfate (3.5 mM) were mixed, diluted in distilled water and kept in the dark at room temperature for 24 h before use. After addition of ABTS^+ solution to 10 µL of antioxidant, measurements were recorded at 10 min post reaction. The percentage inhibition of absorbance at 750 nm was calculated and plotted as a function of concentration of antioxidants. Trolox was used as positive control.

PTP1β = test system: PTP1β; parameters: method as in ref 16 (Hwang et al.); conditions: compounds isolated from Zea mays L., ref 16 (Hwang et al.), cited from earlier work
[5] = test system: rat lens aldose reductase; conditions: compounds from X. strumarium; cited from earlier work
[6] = test system: recombinant aldose reductase; conditions: compounds from X. strumarium; cited from earlier work
α-glucosidase = molecular target: α-glucosidase; parameters: method as in ref 15 (Chen et al.); conditions: compounds isolated from aerial parts of Gynura divaricate; ref 15 (Chen et al.); read-out: inhibitory effects against α-glucosidase; cited from earlier work
[7] = isolated compounds, - is no activity

SMILES: O=C(O)c1ccc(O)c(O)c1 [compound 1, protocatechuic acid]
Inhibition (%) α-glucosidase ([1]; 50 μg/mL, - is no activity): 17.45% | inhibition at 10 µg/mL [2]: 28.6% | IC50 [2]: > 64.9 µM | Inhibition (%) AGEs ([3]; 100 μg/mL): 9.49% | Inhibition (%) ABTS^+ ([4]; 1.66 μg/mL): 25.17% | Inhibition (%) ABTS^+ ([4]; 8.33 μg/mL): 68.72% | Inhibition (%) ABTS^+ ([4]; 16.66 μg/mL): 97.22% | IC50 ([4]; isolated compounds): 32.9 µM | IC50 ABTS^+ radical scavenging [4, 7]: 4.94 ± 0.38 µg/mL (≈ 32.1 µM)

SMILES: N=C(N)NN [Aminoguanidine, reference compound]
Inhibition (%) AGEs ([3]; 50 μg/mL): 27.97% | Inhibition (%) AGEs ([3]; 100 μg/mL): 37.84% | Inhibition (%) AGEs ([3]; 200 μg/mL): 61.01% | Inhibition (%) AGEs ([3]; 400 μg/mL): 98.17% | IC50 AGEs ([3]; Table 2, crude extract and fractions): 166.22 ± 16.29 µg/mL (≈ 2240 µM) | IC50 ([3]; isolated compounds): 1410 µM | IC50 AGEs ([3]; isolated compounds): 155.88 ± 15.45 µg/mL (≈ 2100 µM)

SMILES: COc1cc(-c2oc3cc(O)cc(O)c3c(=O)c2O[C@@H]2O[C@H](CO)[C@@H](O)[C@H](O)[C@H]2O)ccc1O [3′-methoxyhirsutrin]
IC50 (PTP1β; read-out: PTP1β inhibitory activity IC50): 64 µM

SMILES: O=c1c(O[C@@H]2O[C@H](CO)[C@@H](O)[C@H](O)[C@H]2O)c(-c2ccc(O)c(O)c2)oc2cc(O)cc(O)c12 [hirsutrin]
PTP1β inhibitory activity IC50 (PTP1β): no activity

SMILES: O=C(/C=C/c1ccc(O)c(O)c1)O[C@@H]1C[C@](O)(C(=O)O)C[C@@H](OC(=O)/C=C/c2ccc(O)c(O)c2)[C@H]1O [compound 10, 3,5-di-O-caffeoylquinic acid]
Inhibition (%) α-glucosidase ([1]; 5 μg/mL): 9.34% | Inhibition (%) α-glucosidase ([1]; 25 μg/mL): 33.72% | Inhibition (%) α-glucosidase ([1]; 50 μg/mL, - is no activity): 52.85% | Inhibition (%) α-glucosidase ([1]; 100 μg/mL): 99.44% | IC50 ([1]; isolated compounds): 88.1 µM | IC50 α-glucosidase [1, 7]: 45.48 ± 4.52 µg/mL (≈ 88.1 µM) | inhibition at 10 µg/mL [2]: 18.4% | IC50 [2]: > 19.4 µM | Inhibition (%) AGEs ([3]; 100 μg/mL): 42.91% | rat lens aldose reductase inhibitory activity [5]: strong | recombinant aldose reductase inhibitory activity [6]: strong

Inhibition (%) α-glucosidase ([1]; 50 μg/mL, - is no activity): 6.11% | inhibition at 10 µg/mL [2]: < 0% | IC50 [2]: > 19.7 µM
SMILES: COc1c(O)cc2oc(-c3ccc(O)c(O)c3)c(OC3OC(C(=O)O)C(O)C(O)C3O)c(=O)c2c1O (centres unmarked) [compound 8, patuletin-3-glucuronide]
Inhibition (%) AGEs ([3]; 100 μg/mL): 6.11%

SMILES: O=C(/C=C/c1ccc(O)c(O)c1)O[C@@H]1C[C@](O)(C(=O)O)C[C@@H](O)[C@H]1O [compound 5, chlorogenic acid]
Inhibition (%) α-glucosidase ([1]; 50 μg/mL, - is no activity): 6.60% | Inhibition (%) AGEs ([3]; 100 μg/mL): 7.47%

Inhibition (%) α-glucosidase ([1]; 50 μg/mL, - is no activity): 8.60% | inhibition at 10 µg/mL [2]: 5.88% | IC50 [2]: > 60.2 µM
SMILES: O=C(CCO)c1ccc(O)cc1 [compound 2, 3-hydroxy-1-(4-hydroxyphenyl) propan-1-one]
Inhibition (%) AGEs ([3]; 100 μg/mL): 8.50%

SMILES: Cc1ccc(C(=O)Nc2ccc(S(=O)(=O)O)c3cc(S(=O)(=O)O)cc(S(=O)(=O)O)c23)cc1NC(=O)c1cccc(NC(=O)Nc2cccc(C(=O)Nc3cc(C(=O)Nc4ccc(S(=O)(=O)O)c5cc(S(=O)(=O)O)cc(S(=O)(=O)O)c45)ccc3C)c2)c1 [Suramin, reference compound]
inhibition at 1.43 µg/mL ([2]; 1.43 μg/mL): 10.4% | inhibition at 3.57 µg/mL ([2]; 3.57 μg/mL): 26.4% | inhibition at 7.15 µg/mL ([2]; 7.15 μg/mL): 52.2% | inhibition at 14.29 µg/mL ([2]; read-out: Inhibition (%) PTP1β): 83.6%

SMILES: O=C(/C=C/c1ccc(O)c(O)c1)O[C@@H]1[C@H](O)C[C@@](O)(C(=O)O)C[C@H]1OC(=O)/C=C/c1ccc(O)c(O)c1 [4,5-di-O-CQA]
IC50 (α-glucosidase): 131 µM
